Data published in ChEMBL document CHEMBL1201862, “PubChem BioAssay data set” (2004).
Active and inactive are the calls of the source.

Tests used:
[1] = target: Voltage-dependent T-type calcium channel subunit alpha-1H (Homo sapiens, UniProt O95180); format: functional;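 also: channel activity triggered by adding a high calcium stimulation buffer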
[2] = target: T1, Carboxy-terminal domain RNA polymerase II polypeptide A small phosphatase 1 (Homo sapiens, UniProt Q9GZU7); assay: inhibitors of CTDSP1, concentration-response testing, biochemical assay, absorbance-based, actives from ultra-high-throughput screening (AID 540297); format: functional
T1 sequence (Q9GZU7 whole entry): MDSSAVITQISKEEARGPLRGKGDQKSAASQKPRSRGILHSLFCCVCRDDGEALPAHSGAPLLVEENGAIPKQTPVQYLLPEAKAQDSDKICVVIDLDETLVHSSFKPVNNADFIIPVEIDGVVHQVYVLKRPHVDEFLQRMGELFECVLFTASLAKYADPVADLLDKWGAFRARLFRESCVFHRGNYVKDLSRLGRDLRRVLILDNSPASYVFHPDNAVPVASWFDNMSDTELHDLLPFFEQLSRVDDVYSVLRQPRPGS

[3] = microbe, parasite or virus in culture; format: functional; settings: Mycobacterium tuberculosis
[4] = target: T2, Replicative DNA helicase DnaB (Mycobacterium tuberculosis, UniProt P9WMR3); assay: DnaB intein splicing inhibitors, dose response, biochemical, cell-free fluorescence (AID 449749); format: functional
T2 sequence (P9WMR3 whole entry): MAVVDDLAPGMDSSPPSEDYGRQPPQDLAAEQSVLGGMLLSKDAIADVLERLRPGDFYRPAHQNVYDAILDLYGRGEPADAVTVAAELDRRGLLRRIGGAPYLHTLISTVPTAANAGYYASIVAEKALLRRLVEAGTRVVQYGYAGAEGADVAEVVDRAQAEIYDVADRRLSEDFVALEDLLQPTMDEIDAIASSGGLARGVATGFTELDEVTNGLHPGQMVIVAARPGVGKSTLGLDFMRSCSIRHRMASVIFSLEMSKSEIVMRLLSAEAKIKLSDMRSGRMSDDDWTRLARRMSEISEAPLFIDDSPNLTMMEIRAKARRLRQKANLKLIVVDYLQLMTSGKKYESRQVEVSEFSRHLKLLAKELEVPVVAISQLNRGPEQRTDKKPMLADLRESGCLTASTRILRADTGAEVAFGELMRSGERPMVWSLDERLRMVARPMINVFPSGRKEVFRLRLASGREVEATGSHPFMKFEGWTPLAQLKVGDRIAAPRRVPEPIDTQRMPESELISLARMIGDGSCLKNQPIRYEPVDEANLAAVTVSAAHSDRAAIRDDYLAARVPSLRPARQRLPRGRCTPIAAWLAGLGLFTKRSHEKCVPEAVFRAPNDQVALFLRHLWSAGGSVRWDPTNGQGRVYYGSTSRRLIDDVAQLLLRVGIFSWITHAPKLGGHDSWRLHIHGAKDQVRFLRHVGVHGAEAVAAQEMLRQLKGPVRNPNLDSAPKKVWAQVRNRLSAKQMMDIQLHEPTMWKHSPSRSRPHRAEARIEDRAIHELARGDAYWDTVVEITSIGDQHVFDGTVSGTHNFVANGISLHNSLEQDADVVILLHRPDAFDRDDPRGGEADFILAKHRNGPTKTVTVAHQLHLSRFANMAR

[5] = target: T3, Protein RecA (Mycobacterium tuberculosis, UniProt P9WHJ3); assay: Fluorescence Cell-Free Homogeneous Dose Retest to Identify Inhibitors of RecA-Intein Splicing Activity. [Related pubchem assays (depositor defined):AID2097, AID2223, AID489010, AID492950]; format: functional
T3 sequence (P9WHJ3 whole entry): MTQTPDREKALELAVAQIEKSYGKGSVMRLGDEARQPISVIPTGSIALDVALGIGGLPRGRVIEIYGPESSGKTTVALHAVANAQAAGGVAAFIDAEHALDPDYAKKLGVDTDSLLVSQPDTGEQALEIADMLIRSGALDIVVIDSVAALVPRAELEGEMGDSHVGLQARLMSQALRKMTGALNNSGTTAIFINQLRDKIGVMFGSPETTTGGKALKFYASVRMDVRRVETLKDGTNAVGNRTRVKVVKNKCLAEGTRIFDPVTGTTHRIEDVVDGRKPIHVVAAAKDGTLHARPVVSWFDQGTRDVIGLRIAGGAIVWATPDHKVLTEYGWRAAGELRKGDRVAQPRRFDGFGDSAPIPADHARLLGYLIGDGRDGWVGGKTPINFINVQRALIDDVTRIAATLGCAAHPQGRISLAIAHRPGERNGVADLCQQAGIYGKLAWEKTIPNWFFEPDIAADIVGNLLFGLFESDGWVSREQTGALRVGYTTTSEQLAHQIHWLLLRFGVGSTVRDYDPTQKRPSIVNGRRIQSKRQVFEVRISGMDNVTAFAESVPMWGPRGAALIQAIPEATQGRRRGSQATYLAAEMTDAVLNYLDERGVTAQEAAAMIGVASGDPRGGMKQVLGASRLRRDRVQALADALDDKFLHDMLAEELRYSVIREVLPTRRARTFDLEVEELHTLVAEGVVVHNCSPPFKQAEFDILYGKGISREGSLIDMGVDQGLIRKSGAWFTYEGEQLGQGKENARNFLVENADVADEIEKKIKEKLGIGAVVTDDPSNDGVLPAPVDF

[6] = tested on: Streptococcus sp. 'group A'; assay: growth inhibition of control SK(-) GAS strain, dose response, counter-screen for streptokinase expression inhibitor project, luminescence, kanamycin, BacTiterGlo, confirmation (AID 1900); format: functional, organism-based
[7] = target: T4, Streptokinase A (Streptococcus pyogenes serotype M1, UniProt P10520); assay: S. pyogenes streptokinase expression inhibitors, potency, dose response, plasminogen activation absorbance, OD405 (AID 1914); format: functional, Streptococcus pyogenes M1 GAS;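 also: secreted streptokinase activity via plasminogen activation per viability signal from cell pellet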
T4 sequence (P10520 whole entry): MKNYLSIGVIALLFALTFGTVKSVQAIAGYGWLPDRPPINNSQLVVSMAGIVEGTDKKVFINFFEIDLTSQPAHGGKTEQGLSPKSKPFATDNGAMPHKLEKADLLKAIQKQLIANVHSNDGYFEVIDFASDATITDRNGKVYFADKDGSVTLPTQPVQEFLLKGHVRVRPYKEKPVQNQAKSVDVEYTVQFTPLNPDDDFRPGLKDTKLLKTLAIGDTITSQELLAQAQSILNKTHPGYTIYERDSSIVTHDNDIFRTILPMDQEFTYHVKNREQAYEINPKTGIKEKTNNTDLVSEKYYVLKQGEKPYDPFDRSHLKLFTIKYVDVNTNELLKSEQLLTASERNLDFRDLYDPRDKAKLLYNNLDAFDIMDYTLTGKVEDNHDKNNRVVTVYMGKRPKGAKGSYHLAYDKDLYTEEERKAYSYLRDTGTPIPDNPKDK

[8] = tested on: Streptococcus; assay: Group A Streptococcus viability loss, dose response, counter-screen for streptokinase expression inhibitor project, luminescence, BacTiterGlo (AID 1915); format: functional, organism-based;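 also: potency for reduction of bacterial viability or growth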
[9] = target: T5, Ubiquitin-conjugating enzyme E2 N (Homo sapiens, UniProt P61088); format: functional;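 also: Dose-response confirmation in a TR-FRET assay detecting UBC13-driven polyubiquitin chain formation, inhibition measured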
T5 sequence (P61088 whole entry): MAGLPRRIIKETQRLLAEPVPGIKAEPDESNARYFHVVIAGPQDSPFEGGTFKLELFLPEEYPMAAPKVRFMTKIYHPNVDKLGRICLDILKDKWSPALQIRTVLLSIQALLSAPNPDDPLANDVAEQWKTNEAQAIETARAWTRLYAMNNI

[10] = target: T6, SUMO-activating enzyme (Homo sapiens, UniProt Q9UBT2); assay: SUMOylation inhibitor hit validation, confirmation, SUMOylation inhibitor project, biochemical, AlphaScreen (AID 2018); format: functional
[11] = tested on: BJ; assay: cytotoxicity toward BJ-TERT fibroblasts, dose response, cell-based, RAS-independent, luminescence (AID 1933); format: functional; settings: Homo sapiens
[12] = tested on: BJ; assay: cells; format: functional, cell-based; settings: Homo sapiens
[13] = tested on: BJ; assay: cytotoxicity toward BJ-TERT-LT-ST fibroblasts, dose response, cell-based, RAS-independent, luminescence (AID 1935); format: functional; settings: Homo sapiens;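 also: BJ fibroblasts immortalized with TERT plus LT and ST oncogenes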
[14] = cytotoxicity toward DRD oncogenic fibroblasts, dose response, cell-based, non-viral oncogenic, luminescence (AID 1934); format: functional; settings: Homo sapiens
[15] = target: T7, Calpain-2 catalytic subunit (Sus scrofa, UniProt P43367); assay: pig calpain II inhibitor potency, dose response, biochemical, fluorogenic peptide substrate (AID 1420); format: functional
T7 sequence (P43367 whole entry): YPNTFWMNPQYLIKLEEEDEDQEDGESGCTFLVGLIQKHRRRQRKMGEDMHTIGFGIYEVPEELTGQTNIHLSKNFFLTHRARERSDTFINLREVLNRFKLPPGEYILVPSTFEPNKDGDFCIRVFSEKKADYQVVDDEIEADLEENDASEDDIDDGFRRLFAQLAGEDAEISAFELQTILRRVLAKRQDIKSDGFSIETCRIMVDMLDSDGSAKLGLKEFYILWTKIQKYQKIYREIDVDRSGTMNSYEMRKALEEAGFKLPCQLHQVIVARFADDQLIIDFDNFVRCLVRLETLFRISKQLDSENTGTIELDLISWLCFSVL

[16] = target: T8, Heat shock factor protein 1 (Mus musculus, UniProt P38532); assay: inhibition of MG132-induced HSE-luciferase signal, confirmation, cell-based, NIH3T3, luminescence, dose retest (AID 2382); format: functional;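 also: NIH3T3 fibroblasts with HSF1-driven luciferase reporter stressed by proteasome inhibitor MG132; luminescence from HSF1-driven luciferase expression after 8 hours of MG132 stress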
T8 sequence (P38532 whole entry): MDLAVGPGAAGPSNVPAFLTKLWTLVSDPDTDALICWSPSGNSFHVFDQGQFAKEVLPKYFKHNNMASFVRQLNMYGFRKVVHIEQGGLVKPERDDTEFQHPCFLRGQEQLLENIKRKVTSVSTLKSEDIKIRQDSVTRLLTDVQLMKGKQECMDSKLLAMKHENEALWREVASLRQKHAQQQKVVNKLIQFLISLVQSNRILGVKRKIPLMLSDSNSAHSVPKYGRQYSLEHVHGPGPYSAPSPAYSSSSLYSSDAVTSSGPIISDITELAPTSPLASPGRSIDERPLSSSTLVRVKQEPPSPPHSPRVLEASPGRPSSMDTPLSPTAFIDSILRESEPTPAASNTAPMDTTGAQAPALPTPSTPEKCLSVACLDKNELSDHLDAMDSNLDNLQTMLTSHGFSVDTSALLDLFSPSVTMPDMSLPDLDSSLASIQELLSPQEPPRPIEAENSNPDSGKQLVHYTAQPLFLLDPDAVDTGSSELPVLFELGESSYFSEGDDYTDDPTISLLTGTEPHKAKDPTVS

[17] = inhibitors of HIV Env-driven cell fusion, dose response, cherry-pick (AID 652057); format: functional, cell-based
[18] = ZM109 Env clade C HIV-1 fusion inhibitors, dose response, HeLa effector, CEM target cells, luciferase, cherry-pick (AID 652058); format: functional, cell-based
[19] = tested on: HEK293; assay: inhibitors of LMP1-driven NF-kB reporter, dose response, cell-based, HEK293, luciferase, cherry-pick (AID 588343); format: functional; settings: Homo sapiens
[20] = tested on: INS1; assay: beta cell apoptosis inhibitors, cytokine rescue, dose response, luminescence, retest (AID 449756); format: functional, cell-based; settings: Rattus norvegicus;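 also: cell death triggered by IL-1 beta plus TNF-alpha plus IFN-gamma mixture; protective hits raise ATP signal compared with cytokine alone wells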
[21] = target: T6, SUMO-activating enzyme; assay: inhibitors of in vitro SUMOylation cascade, primary screen, biochemical, HTRF, uHTS (AID 2006); format: protein-complex assay
[22] = tested on: SN12K1; assay: cells; format: functional; settings: Homo sapiens

Voltage-dependent T-type calcium channel subunit alpha-1H, sequence (O95180 whole entry, the tested form may be a part): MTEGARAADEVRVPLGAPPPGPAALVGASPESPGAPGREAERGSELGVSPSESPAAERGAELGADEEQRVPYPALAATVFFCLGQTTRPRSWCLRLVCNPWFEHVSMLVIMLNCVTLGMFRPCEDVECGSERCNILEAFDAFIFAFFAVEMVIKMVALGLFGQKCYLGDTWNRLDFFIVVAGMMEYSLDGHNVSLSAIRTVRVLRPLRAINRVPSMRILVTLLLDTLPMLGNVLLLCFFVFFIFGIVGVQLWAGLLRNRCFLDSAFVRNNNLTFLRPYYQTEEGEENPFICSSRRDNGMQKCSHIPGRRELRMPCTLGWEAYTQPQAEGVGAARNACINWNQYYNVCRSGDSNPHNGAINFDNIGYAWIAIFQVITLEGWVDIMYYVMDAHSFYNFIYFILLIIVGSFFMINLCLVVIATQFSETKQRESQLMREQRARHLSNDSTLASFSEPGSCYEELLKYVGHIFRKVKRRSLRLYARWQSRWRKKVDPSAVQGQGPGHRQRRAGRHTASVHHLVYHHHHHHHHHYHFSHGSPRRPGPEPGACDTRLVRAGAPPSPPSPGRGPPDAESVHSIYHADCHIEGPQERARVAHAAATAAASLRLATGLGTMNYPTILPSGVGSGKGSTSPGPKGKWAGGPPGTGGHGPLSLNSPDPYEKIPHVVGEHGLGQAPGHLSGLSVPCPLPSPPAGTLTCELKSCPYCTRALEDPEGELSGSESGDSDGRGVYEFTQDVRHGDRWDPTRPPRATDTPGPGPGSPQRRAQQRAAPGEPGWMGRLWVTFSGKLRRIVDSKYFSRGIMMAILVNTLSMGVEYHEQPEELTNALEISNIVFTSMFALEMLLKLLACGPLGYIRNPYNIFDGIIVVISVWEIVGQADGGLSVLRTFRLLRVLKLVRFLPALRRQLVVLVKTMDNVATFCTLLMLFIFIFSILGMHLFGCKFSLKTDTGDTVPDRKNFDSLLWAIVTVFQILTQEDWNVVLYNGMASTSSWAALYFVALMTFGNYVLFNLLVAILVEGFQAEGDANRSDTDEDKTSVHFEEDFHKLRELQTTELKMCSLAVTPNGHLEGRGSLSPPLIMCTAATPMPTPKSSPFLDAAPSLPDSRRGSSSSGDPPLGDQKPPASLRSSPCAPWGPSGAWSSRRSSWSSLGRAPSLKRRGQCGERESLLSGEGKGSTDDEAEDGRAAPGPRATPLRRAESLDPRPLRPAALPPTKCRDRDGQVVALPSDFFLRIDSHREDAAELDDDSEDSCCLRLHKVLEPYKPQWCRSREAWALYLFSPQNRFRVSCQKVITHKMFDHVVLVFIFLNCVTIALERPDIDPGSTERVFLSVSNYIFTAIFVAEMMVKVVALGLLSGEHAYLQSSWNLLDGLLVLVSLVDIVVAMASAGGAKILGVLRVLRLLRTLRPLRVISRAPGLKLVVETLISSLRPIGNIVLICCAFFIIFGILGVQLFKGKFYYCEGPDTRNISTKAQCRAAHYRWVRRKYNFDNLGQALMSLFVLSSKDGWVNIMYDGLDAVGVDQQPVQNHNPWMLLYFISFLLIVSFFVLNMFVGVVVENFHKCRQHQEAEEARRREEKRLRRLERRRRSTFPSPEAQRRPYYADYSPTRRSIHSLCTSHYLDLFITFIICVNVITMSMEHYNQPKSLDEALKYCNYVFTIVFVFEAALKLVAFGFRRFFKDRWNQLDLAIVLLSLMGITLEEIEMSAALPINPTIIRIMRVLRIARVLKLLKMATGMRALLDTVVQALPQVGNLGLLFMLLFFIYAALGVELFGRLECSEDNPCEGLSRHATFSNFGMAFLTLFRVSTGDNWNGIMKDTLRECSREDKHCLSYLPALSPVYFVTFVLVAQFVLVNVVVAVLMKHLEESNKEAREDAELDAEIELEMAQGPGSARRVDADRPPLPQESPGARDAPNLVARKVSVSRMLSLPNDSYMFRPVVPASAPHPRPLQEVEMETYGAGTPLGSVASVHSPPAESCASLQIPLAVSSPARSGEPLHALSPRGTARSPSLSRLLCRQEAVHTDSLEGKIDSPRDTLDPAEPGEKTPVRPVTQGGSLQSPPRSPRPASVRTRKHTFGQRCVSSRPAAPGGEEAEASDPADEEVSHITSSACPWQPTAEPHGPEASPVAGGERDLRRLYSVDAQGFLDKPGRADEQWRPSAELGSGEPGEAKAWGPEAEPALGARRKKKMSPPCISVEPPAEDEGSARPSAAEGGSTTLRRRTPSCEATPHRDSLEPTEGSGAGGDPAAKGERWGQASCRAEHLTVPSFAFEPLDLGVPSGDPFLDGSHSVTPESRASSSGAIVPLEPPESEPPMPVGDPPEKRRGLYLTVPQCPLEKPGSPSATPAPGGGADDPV
T6 sequence (Q9UBE0 whole entry): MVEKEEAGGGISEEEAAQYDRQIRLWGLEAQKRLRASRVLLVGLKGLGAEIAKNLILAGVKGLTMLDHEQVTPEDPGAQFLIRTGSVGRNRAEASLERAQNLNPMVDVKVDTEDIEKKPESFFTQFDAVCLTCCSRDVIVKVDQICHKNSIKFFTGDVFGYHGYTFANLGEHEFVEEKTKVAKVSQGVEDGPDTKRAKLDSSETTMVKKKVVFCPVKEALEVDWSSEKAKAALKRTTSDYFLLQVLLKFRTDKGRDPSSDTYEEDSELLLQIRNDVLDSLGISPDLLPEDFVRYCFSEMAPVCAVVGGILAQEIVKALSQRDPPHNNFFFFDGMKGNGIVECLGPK
T6 sequence (Q9UBT2 whole entry): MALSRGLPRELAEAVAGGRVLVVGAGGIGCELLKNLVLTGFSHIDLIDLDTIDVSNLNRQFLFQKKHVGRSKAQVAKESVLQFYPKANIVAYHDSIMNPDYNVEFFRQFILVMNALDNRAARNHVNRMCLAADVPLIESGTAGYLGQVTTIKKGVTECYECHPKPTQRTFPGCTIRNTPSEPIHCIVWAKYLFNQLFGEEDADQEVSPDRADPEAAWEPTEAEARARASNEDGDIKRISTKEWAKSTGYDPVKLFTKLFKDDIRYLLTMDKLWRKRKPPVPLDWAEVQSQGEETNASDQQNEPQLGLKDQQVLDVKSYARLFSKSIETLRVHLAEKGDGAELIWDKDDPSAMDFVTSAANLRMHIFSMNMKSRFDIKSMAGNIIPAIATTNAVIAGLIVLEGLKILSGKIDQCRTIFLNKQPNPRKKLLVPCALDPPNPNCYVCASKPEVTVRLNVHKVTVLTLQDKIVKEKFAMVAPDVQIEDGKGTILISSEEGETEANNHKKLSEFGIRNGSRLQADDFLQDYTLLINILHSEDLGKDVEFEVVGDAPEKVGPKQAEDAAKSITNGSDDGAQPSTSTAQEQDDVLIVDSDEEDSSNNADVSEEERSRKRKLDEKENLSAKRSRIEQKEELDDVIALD

## CCc1ccc(S(=O)(=O)NCc2csc(-c3ccccc3)n2)s1
[1]
  EC50: 4.61 µM (active)

## O=C(O)CNC(=O)CC1SC(NNC2=NC(=O)CS2)=NC1=O (stereo unspecified)
[2]
  IC50: 5.27 µM (active)

## Cn1c2ccccc2c2cc(C(=O)NNC(=O)CCl)sc21
[3]
  CC50: 21.3 µM (active)
[4]
  AC50: > 380 µM (inactive)
[5]
  EC50: 15.7 µM (active)

## COc1cc2ccccc2cc1C(=O)NC(=S)Nc1ccc(C(=O)O)cc1
[6]
  EC50: 8.15 µM (active)
[7]
  EC50: > 150 µM (not active)
[8]
  EC50: 60.9 µM (active)
[2]
  IC50: 4.12 µM (active)

## CC(=O)N1c2ccccc2N(Cc2ccc(C)cc2C)C(=O)C1(C)C
[1]
  EC50: 4.43 µM (active)

## CC[C@@H](C)[C@H](CN[C@H](CNC)C(C)C)NC[C@@H](C)c1ccc(CC(C)C)cc1
[3]
  CC50: 10 µM (active)
[9]
  IC50: > 20 µM (inactive)

## Cc1cccc(C)c1OCC(=O)N=Nc1c(O)[nH]c2ccc(Br)cc12
[10]
  IC50: 10.6 µM (active)

## COc1ccccc1N1CCN(C(=O)CCC(=O)Nc2nnc(CC(C)C)s2)CC1
[11]
  EC50: > 150 µM (not active)
[12]
  EC50: > 150 µM (not active)
[13]
  EC50: > 150 µM (not active)
[14]
  EC50: > 150 µM (inconclusive)

## Cc1ccsc1S(=O)(=O)N1CCCC(CCC(=O)NCc2ccccc2F)C1 (stereo unspecified)
[15]
  IC50: > 50 µM (not active)

## COc1cccc(-c2nnc(SCC(=O)NCc3ccc4c(c3)OCO4)n2Cc2ccco2)c1
[1]
  EC50: 8.92 µM (active)

## CC(=O)c1sc(NC(=O)COc2ccc(C(C)C)c(C)c2)nc1C
[15]
  IC50: 9.95 µM (not active)

## CCOc1ccc(C(=O)Nc2c3c(nn2C(C)(C)C)CSC3)cc1OCC
[1]
  EC50: 3.79 µM (active)

## CC(C)[C@H](NC(=O)Cc1ccccc1)C(=O)OCc1cc(=O)n2c(n1)sc1ccccc12
[16]
  EC50: 21.5 µM (active)
[2]
  IC50: 3.58 µM (active)

## Cc1cccc(NS(=O)(=O)c2ccc(NC(=O)CN(c3cc([N+](=O)[O-])ccc3C)S(C)(=O)=O)cc2)c1
[11]
  EC50: 22.7 µM (active)
[12]
  EC50: 7.28 µM (active)
[13]
  EC50: 7.77 µM (inconclusive)
[14]
  EC50: > 150 µM (not active)

## CCOc1cc(/C=N/N=C(\N)c2nonc2N)cc(Br)c1OCc1cccc2ccccc12
[10]
  IC50: 80 µM (active)

## Cc1ccc(S(=O)(=O)N(C)C[C@H]2Oc3cc(-c4cccc(F)c4)ccc3S(=O)(=O)N([C@H](C)CO)C[C@H]2C)cc1
[17]
  AC50: 1.47 µM (active)
[18]
  AC50: < 0.26 µM (active)

## O=Cc1ccc(-c2cccs2)s1
[19]
  AC50: 6.76 µM (active)

## CC(C)NC(=S)N/N=C/c1cc(Br)ccc1O
[3]
  CC50: 38.5 µM (active)
[20]
  AC50: 1.65 µM (active)

## Cc1cccc(-c2nnc(S)n2/N=C/C=C/c2ccco2)c1
[21]
  IC50: > 100 µM (inactive)

## CN(C)c1cccc(/N=C2/C=C(N3CCOCC3)CC(C)(C)C2)c1
[2]
  IC50: 5.65 µM (active)

## C/C=C/C1=C(Cl)C(=O)[C@@H](Cl)[C@@]1(O)C(=O)OC [(+)-CRYPTOSPORIPSIN]
[22]
  GI50: 1.89 µM (inactive)
